Test results taken from BindingDB's records for doi:10.1021/acschembio.6b00250 (Chinese Academy of Sciences, 2016).

Assays:
Assay in all cases: Invitrogen SelectScreen Enzymatic Assay
[1] = molecular target: Phosphatidylinositol 4,5-bisphosphate 3-kinase catalytic subunit gamma isoform (Homo sapiens, UniProt P48736)
Protocol: (§1) The enzymatic assay was performed using the LifeTechnology SelectScreen.

[2] = molecular target: Phosphatidylinositol 3-kinase catalytic subunit type 3 (Homo sapiens, UniProt Q8NEB9)
Phosphatidylinositol 3-kinase catalytic subunit type 3, sequence (Q8NEB9 whole entry): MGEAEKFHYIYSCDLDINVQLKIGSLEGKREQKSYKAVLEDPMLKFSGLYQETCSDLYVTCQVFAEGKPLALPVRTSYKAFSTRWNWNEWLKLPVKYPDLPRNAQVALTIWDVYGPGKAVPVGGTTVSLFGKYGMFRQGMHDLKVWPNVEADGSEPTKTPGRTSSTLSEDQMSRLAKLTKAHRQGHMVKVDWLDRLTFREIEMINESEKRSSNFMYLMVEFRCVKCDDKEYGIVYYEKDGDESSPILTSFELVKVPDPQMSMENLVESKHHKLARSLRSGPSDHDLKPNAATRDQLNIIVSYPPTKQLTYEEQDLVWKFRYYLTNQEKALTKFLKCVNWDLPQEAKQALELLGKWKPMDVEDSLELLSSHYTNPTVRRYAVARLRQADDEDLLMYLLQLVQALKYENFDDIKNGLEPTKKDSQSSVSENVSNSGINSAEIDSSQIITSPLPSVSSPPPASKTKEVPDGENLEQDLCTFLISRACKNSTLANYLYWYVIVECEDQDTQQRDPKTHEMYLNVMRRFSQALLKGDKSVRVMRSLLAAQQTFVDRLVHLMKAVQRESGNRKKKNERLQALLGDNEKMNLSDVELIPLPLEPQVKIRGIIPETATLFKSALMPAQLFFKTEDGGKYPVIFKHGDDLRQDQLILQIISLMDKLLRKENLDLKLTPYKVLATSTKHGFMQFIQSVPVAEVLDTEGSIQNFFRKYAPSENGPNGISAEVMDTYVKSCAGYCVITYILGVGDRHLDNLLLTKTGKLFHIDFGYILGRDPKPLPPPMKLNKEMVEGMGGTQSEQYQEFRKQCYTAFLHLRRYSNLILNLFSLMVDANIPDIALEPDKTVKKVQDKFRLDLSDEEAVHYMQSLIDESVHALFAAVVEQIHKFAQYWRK
Protocol: as §1

[3] = molecular target: Phosphatidylinositol 4-kinase beta (Homo sapiens, UniProt Q9UBF8)
Protocol: as §1

[4] = molecular target: Serine/threonine-protein kinase 16 (Homo sapiens, UniProt O75716)
Serine/threonine-protein kinase 16, sequence (O75716 whole entry): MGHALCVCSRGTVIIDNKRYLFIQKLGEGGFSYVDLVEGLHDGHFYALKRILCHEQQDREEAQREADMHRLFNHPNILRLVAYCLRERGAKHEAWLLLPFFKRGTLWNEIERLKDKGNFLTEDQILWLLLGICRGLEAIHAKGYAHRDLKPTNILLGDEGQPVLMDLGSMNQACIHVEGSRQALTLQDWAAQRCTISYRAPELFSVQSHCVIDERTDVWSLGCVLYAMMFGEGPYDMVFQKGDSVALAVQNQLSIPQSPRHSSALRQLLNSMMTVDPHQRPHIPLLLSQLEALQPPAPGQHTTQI
Protocol: as §1

[5] = molecular target: Phosphatidylinositol 3-kinase regulatory subunit alpha/4,5-bisphosphate 3-kinase catalytic subunit delta isoform (Homo sapiens, UniProt O00329)
Protocol: as §1

[6] = molecular target: Phosphatidylinositol 4-kinase alpha (Homo sapiens, UniProt P42356)
Phosphatidylinositol 4-kinase alpha, sequence (P42356 whole entry): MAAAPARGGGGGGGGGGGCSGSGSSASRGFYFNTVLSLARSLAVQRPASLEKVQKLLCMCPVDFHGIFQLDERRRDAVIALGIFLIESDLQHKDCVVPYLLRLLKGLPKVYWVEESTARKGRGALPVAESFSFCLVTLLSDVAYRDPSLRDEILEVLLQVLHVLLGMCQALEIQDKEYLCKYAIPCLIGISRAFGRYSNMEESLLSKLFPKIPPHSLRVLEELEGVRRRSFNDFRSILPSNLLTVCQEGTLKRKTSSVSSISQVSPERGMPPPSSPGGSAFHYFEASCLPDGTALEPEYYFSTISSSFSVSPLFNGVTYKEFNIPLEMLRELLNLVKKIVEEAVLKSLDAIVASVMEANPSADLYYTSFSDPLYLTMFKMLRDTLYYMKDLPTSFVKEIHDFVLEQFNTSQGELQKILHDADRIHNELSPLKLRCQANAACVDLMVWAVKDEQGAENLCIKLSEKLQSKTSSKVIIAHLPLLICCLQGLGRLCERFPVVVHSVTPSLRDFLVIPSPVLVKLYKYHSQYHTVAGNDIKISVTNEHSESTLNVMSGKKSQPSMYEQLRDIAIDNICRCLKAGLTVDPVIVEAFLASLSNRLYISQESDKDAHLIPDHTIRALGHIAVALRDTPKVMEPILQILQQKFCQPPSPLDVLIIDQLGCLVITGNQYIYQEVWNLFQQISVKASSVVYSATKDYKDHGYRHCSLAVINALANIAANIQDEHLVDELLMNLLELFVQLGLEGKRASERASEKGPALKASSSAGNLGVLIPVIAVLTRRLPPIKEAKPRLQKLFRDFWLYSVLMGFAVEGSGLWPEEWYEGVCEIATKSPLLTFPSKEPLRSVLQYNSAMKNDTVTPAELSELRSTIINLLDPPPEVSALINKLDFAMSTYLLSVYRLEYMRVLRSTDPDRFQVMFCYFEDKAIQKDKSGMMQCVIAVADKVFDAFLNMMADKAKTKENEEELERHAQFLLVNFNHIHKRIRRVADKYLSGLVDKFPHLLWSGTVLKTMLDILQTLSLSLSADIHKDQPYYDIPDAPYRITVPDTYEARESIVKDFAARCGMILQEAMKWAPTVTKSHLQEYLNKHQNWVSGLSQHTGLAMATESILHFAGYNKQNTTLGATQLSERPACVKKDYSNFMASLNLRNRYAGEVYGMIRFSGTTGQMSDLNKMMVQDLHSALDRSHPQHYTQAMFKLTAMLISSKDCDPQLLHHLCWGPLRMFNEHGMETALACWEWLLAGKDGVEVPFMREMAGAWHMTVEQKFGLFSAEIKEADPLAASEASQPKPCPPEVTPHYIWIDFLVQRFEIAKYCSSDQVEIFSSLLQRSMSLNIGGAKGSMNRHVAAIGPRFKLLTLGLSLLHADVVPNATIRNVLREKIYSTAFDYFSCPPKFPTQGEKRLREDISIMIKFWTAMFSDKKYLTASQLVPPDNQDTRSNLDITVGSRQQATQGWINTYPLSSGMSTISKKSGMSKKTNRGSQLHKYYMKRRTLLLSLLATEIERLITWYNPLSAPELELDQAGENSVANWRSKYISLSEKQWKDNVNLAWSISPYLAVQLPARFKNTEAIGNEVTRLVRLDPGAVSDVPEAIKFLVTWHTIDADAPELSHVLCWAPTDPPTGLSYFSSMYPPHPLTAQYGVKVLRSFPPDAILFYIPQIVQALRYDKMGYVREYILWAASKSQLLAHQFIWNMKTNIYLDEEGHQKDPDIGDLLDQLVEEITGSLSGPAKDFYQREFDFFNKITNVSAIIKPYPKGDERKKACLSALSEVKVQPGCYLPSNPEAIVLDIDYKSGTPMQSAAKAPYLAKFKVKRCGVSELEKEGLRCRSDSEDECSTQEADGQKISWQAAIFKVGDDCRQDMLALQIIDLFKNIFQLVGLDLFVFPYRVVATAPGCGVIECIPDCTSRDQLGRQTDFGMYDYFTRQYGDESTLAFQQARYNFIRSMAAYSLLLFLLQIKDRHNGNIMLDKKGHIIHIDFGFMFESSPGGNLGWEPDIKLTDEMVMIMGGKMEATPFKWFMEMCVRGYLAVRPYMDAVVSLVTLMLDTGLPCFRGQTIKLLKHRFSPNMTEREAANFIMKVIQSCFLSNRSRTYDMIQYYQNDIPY
Protocol: as §1

[7] = molecular target: Phosphatidylinositol 4-phosphate 3-kinase C2 domain-containing subunit beta (Homo sapiens, UniProt O00750)
Protocol: as §1

[8] = molecular target: Phosphatidylinositol 3-kinase regulatory subunit alpha/4,5-bisphosphate 3-kinase catalytic subunit alpha isoform (Homo sapiens, UniProt P42336)
Protocol: as §1

[9] = molecular target: Phosphatidylinositol 4-phosphate 3-kinase C2 domain-containing subunit alpha (Homo sapiens, UniProt O00443)
Protocol: as §1

Phosphatidylinositol 4,5-bisphosphate 3-kinase catalytic subunit gamma isoform, sequence (P48736 whole entry, canonical isoform): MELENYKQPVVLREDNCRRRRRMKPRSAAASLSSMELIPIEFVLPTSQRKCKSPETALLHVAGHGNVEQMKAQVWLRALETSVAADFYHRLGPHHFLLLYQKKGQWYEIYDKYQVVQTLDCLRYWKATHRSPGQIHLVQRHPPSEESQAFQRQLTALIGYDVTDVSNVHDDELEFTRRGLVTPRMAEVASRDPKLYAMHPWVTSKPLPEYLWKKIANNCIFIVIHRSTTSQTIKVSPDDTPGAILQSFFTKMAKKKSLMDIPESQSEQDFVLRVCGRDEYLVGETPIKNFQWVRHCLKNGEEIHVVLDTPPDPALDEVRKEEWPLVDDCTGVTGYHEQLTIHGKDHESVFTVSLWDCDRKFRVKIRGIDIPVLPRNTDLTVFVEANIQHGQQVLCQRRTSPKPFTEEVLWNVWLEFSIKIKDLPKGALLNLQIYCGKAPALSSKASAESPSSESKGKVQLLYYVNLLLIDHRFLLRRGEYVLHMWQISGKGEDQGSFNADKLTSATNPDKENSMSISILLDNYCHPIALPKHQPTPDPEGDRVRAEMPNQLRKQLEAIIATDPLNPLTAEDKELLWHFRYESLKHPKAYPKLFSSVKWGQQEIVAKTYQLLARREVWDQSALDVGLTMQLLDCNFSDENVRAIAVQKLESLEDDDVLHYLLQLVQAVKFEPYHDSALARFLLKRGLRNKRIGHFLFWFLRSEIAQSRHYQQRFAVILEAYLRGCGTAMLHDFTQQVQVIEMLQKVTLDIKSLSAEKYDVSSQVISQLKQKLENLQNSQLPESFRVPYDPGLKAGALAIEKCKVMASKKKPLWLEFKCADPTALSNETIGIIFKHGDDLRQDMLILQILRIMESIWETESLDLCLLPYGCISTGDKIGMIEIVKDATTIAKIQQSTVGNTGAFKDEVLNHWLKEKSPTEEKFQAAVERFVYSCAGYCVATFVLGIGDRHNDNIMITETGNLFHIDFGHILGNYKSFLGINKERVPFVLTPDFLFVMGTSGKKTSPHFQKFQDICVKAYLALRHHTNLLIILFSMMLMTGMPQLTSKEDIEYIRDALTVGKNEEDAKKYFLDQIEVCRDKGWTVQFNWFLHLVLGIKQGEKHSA

`O=c1ccc2cnc3[nH]ccc3c2n1-c1ccc(F)c(O)c1` [STK16-IN-1] showed an IC50 [1] of 867 nM, an IC50 [2] of 7940 nM and an IC50 [3] greater than 10000 nM. The IC50 [4] was 295 nM, the IC50 [5] was 856 nM and the IC50 [6] was greater than 10000 nM. The IC50 [7] was 9330 nM, the IC50 [8] was 1070 nM and the IC50 [9] was 4860 nM.
